Source: patent US20230157945A1, “Nasal Hygiene Method and Formulation” (ACTUAL NATURAL HEALTH & WELLNESS PRODUCTS, INC., priority 2018, published 2023)

Tested on: human nasal passage
Experiment: testing of the nasal spray / nasal wash composition applied to the nasal passages
Format: in vivo
Details: CBD at 0.3% by weight in the composition
Description: A homogenized mixture of water, cannabinoid, an olfactory stimulant, and inorganic salt when applied to a nasal passage as a mist delivering 0.08 mL to 0.18 mL in each nostril is effective as a nasal wash. A solubilizing agent particularly suited for cannabinoids may also be added, such as those disclosed in U.S. patent application Ser. No. 17/527,465, filed Nov. 16, 2021.
Practicing nasal hygiene by the use of the method of applying to a person's nostril a mist of nasal wash composition comprising the product of compounding under homogenizing conditions water, an amount of a source of chlorine dioxide, 0.1 to 1% by weight cannabinoid; 0.1 to 3% by weight of olfactory stimulant; and 0 to 5% by weight of at least one fixative compound; and blowing air out of the nostril. and composition of the invention, nasal irritation is reduced. […]
It is a feature of the invention that the practice of nasal hygiene according to the invention requires only moderate and convenient quantities of the composition. It is sufficient for the user to place a convenient quantity of the composition, which can range from about 0.3 to 3 milliliters, into each nostril and retain it for a holding period which can range from a fraction of a minute to about ten minutes or as long as comfortable, and then remove it as by blowing the nose. […]

Structure (SMILES): C=C(C)[C@@H]1CCC(C)=C[C@H]1c1c(O)cc(CCCCC)cc1O [CBD, Cannabidiol]
- pain relief: effective pain relief
